How the values were obtained:
EGFR = molecular target: T1, EGFR (Homo sapiens, UniProt P00533); assay: Western blot degradation of EGFR; type: cell-based; settings: H1975 Cell; 24 hours
T1 construct: L858R/T790M in cis, heterozygous with wild type), Western blot
Procedure, shortened: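 Immunoblot of drug-treated versus DMSO-treated cell lysates, with densitometric quantification. Values: DC50 (50% band loss, fitted) and loading-control-normalised % remaining or degradation.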

[1] = molecular target: T2, human Cereblon WT GST-tagged protein (CRBN) (Homo sapiens, UniProt Q96SW2); assay: CRBN binding by HTRF (Cereblon binding kit)
T2 construct: purchased CISBIO 64BDCRBNPEH
T2 sequence (Q96SW2 whole entry): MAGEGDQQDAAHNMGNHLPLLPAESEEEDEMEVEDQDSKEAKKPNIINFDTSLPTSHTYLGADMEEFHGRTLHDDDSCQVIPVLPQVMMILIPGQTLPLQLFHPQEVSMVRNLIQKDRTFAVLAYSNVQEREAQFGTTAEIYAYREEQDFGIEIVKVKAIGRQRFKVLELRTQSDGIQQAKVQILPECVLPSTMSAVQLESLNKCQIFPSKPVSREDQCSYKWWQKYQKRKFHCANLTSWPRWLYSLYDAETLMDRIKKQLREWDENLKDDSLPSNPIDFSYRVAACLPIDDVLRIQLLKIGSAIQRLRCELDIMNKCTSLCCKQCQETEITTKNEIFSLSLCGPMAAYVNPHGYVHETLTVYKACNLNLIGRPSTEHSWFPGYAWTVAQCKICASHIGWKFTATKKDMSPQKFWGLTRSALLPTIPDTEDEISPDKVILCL
Procedure, shortened: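 GST-tagged human Cereblon WT was incubated 3 h at room temperature with compound, thalidomide-Re tracer and Eu anti-GST antibody. Final compound concentrations were 10 to 0.00064 µM (7 points) or 2 and 0.5 µM. Inhibition rate was calculated from HTRF 665/620 nm ratios versus solvent and blank controls.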

[2] = test system: Human non-small cell lung cancer cell line NCI-H1975; assay: Inhibition of H1975 cell proliferation (CellTiter luminescent viability); type: cell-based; settings: Table ID1, EGFR inhibitor-based; H1975, 96 hours; read-out: Inhibitory activity (IC50, nM) on tumor cell proliferation, H1975
Procedure: The tumor cells used herein were cultured in a cell culture medium listed in table 3 at 37 °C in an incubator with 5% CO2. Prior to experimentation, all cell lines used were correctly identified by STR profiling, and tested negative for mycoplasma contamination using a mycoplasma detection kit through routine screenings.
The IC50 values of the compounds of the present disclosure (including the compounds in Table 1, Table 2, and Examples 1-468) were determined using the CellTiter-Meiluncell Luminescent Cell Viability Assay Kit from Dalian Meilun Biotech Co., Ltd. The detailed procedure is as follows: Tumor cells were seeded in 96-well cell culture plates at the densities specified in Table 4. On the following day, the test compounds of the present disclosure were subjected to serial dilution. The dilution can be performed according to one of the following two methods: • (1) The first dilution method: The test compounds of the present disclosure (including the compounds in Table 1, Table 2, and Examples 1-468) were subjected to 5-fold serial dilutions starting from a highest concentration of 2000 μM, resulting in a total of 9 concentrations from high to low (2000, 400, 80, 16, 3.2, 0.64, 0.128, 0.0256, 0.00512 μM). Subsequently, 0.5 μL of the test compound dilution was transferred into the 96-well plate containing the cells, with each well containing 100 μL of cell culture medium. […] Into the 96-well plate, the diluted test compounds and corresponding detection reagents were added, resulting in final test compound concentrations of 500 nM and 10 nM, respectively. The experimental procedure is described below using the diluted 2 μM test compound as an example.
0.5 μL of the aforementioned diluted compound of the present disclosure (including the compounds in Table 1, Table 2, and Examples 1-468) was added to the seeded cells in 100 μL of medium, yielding a final test compound concentration of 10 nM. After the cells were treated with the compounds of the present disclosure for a specified period, the cell viability assay reagent was added to the culture medium according to the kit's instructions to determine cell viability. […] All controls were treated using the same procedure as the compounds of the present disclosure. The growth inhibition curves for the compounds of the present disclosure were plotted using Prism GraphPad software, and the IC50 values were calculated therefrom.

IKZF1 = molecular target: T3, IKZF1 (Homo sapiens, UniProt Q13422+Q96SW2); assay: Western blot degradation of IKZF1; type: cell-based; settings: hPBMC Cell; 24 hours
T3 construct: expression of target proteins in cells; endogenous in cells
T3 sequence (Q13422 whole entry): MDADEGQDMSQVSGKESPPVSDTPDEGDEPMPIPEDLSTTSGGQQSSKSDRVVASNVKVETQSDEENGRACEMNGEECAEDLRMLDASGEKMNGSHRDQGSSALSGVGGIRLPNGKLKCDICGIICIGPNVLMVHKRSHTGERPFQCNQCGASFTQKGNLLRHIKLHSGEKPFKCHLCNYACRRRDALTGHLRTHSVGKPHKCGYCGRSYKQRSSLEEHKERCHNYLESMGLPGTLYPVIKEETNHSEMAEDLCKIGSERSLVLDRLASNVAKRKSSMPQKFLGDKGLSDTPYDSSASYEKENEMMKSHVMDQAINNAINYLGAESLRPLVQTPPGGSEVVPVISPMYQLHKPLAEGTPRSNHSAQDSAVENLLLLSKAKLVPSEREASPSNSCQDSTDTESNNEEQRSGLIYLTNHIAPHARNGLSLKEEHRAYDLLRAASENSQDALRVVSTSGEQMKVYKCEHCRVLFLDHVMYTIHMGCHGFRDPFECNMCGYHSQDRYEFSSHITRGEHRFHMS
T3 sequence (Q96SW2 whole entry): as the sequence (Q96SW2 whole entry) above
T3 sequence (Q16531 whole entry partner): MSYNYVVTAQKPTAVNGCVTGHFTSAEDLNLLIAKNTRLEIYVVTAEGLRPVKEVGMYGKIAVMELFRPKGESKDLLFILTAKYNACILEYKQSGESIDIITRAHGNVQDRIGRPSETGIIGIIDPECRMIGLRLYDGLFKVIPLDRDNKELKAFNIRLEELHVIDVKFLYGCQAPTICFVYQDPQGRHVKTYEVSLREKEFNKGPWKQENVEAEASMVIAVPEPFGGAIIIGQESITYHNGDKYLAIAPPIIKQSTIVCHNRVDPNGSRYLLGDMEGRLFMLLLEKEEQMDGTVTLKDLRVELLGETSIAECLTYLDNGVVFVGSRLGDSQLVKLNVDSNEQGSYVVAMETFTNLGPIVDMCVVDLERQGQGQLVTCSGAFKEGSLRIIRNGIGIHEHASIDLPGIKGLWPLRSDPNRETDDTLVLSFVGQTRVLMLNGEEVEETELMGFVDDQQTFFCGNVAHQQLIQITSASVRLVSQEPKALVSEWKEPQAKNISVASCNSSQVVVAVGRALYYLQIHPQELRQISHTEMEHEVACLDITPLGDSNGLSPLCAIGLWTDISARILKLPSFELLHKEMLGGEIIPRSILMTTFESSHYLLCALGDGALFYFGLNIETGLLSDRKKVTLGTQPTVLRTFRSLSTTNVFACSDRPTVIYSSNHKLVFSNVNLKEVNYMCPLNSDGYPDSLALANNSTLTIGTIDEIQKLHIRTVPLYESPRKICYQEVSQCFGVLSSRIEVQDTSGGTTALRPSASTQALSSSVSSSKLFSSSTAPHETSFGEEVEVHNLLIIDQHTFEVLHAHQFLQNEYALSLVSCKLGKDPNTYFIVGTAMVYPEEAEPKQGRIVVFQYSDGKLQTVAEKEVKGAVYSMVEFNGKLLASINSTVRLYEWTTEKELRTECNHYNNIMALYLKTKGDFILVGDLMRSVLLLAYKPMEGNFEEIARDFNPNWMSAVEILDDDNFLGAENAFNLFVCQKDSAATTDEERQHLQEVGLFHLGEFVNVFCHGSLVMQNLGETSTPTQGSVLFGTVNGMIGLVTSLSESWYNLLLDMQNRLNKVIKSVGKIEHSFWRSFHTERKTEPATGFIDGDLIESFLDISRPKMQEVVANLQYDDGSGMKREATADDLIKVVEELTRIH
Procedure: (§1) Conventional Western blot assay was performed to evaluate the effects of the compounds of the present disclosure on the expression of target proteins in cells.
(§2) (1) Cell Seeding and Protein Harvesting: The selected cells were processed according to the cell seeding procedure and protein harvesting procedure in Table II-2.
(§3) (2) To the collected supernatant, 5×SDS sample loading buffer was added, followed by denaturation at 95 °C for 5 minutes. The denatured samples were then separated by SDS-PAGE electrophoresis on a polyacrylamide gel. Proteins were transferred to a nitrocellulose membrane (0.45 μm NC membrane), blocked with blocking buffer at room temperature for 1 hour, and subjected to antibody incubation and development procedures according to the antibody manufacturer's instructions (Cell Signaling Technology).
(§4) Half-Maximal Degradation Concentration value (the drug concentration required for degrading proteins by 50%, abbreviated as DC50) reads method: comparing the grayscale values of Western blot bands from drug-treated samples with those from blank DMSO-treated controls, and identifying the drug concentration range at which the grayscale value is half that of the DMSO-treated control bands.
(§5) DC50 values can be calculated using ImageJ software to measure grayscale values of Western blot bands from drug-treated samples. The concentration-response curve is fitted to estimate the drug concentration corresponding to half the grayscale value.
(§6) Target protein remaining (%) refers to the percentage of target protein remaining in cells after treatment with protein degrader compounds.
(§7) Calculation method for target protein remaining (%): Use ImageJ software to measure grayscale values of Western blot bands from drug (protein degrader)-treated samples. The grayscale value of drug-treated bands is divided by that of internal control protein bands, and the resulting quotient is normalized to obtain the relative percentage of remaining target protein after protein degrader treatment.
(§8) Target protein degradation rate (%)=1−target protein remaining (%).

IKZF3 = molecular target: T4, IKZF3 (Homo sapiens, UniProt Q96SW2+Q9UKT9); assay: Western blot degradation of IKZF3; type: cell-based; settings: hPBMC Cell; 24 hours
T4 construct: expression of target proteins in cells; endogenous in cells
T4 sequence (Q9UKT9 whole entry): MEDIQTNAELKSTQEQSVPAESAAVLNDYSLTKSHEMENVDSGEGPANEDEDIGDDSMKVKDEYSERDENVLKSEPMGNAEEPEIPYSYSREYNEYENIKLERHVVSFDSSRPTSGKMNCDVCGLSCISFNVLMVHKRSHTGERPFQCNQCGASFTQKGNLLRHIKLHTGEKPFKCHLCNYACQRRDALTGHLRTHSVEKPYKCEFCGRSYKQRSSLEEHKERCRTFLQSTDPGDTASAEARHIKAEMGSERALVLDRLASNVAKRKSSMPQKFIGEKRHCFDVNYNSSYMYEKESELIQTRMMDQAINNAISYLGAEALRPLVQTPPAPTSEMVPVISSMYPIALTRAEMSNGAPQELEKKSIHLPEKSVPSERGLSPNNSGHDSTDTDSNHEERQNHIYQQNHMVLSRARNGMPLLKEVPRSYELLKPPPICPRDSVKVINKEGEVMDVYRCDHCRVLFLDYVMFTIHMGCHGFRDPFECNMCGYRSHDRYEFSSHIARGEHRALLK
T4 sequence (Q96SW2 whole entry): as the sequence (Q96SW2 whole entry) above
T4 sequence (Q16531 whole entry partner): as the sequence (Q16531 whole entry partner) above
Procedure: as §1, §2, §3, §4, §5, §6, §7, §8

GSPT1 = molecular target: T5, GSPT1 (Homo sapiens, UniProt P15170+Q96SW2); assay: Western blot degradation of GSPT1; type: cell-based; settings: hPBMC Cell; 24 hours
T5 construct: expression of target proteins in cells; endogenous in cells
T5 sequence (P15170 whole entry): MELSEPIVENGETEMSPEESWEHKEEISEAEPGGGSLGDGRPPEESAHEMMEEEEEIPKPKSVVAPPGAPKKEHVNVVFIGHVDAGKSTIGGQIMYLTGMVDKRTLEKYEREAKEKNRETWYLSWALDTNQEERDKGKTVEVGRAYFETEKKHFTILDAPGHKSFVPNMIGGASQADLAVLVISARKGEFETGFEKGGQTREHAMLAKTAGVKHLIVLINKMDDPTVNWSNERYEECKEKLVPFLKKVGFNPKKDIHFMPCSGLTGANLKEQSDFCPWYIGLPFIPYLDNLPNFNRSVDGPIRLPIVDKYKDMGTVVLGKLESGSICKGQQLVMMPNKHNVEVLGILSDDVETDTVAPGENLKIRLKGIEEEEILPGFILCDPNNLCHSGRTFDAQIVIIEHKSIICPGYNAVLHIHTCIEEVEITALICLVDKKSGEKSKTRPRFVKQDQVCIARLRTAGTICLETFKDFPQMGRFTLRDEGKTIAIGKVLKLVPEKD
T5 sequence (Q96SW2 whole entry): as the sequence (Q96SW2 whole entry) above
T5 sequence (Q16531 whole entry partner): as the sequence (Q16531 whole entry partner) above
Procedure: as §1, §2, §3, §4, §5, §6, §7, §8

WEE1 = molecular target: T6, WEE1 (Homo sapiens, UniProt P30291+Q96SW2); assay: Western blot degradation of WEE1; type: cell-based; settings: hPBMC Cell; 24 hours
T6 construct: expression of target proteins in cells; endogenous in cells
Procedure: as §1, §2, §3, §4, §5, §6, §7, §8

CK1α = molecular target: T7, CK1α (Homo sapiens, UniProt P48729+Q96SW2); assay: Western blot degradation of CK1α; type: cell-based; settings: hPBMC Cell; 24 hours
T7 construct: expression of target proteins in cells; endogenous in cells
T7 sequence (P48729 whole entry): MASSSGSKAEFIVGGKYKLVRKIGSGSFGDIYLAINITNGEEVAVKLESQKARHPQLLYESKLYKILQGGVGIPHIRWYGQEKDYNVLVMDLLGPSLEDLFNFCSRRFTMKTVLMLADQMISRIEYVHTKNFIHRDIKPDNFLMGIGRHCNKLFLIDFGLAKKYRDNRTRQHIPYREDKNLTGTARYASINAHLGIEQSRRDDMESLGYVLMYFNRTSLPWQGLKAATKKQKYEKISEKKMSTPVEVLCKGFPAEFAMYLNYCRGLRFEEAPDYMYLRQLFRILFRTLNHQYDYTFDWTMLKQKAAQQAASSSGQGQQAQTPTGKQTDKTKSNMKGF
T7 sequence (Q96SW2 whole entry): as the sequence (Q96SW2 whole entry) above
T7 sequence (Q16531 whole entry partner): as the sequence (Q16531 whole entry partner) above
Procedure: as §1, §2, §3, §4, §5, §6, §7, §8

IKZF2 = molecular target: T8, IKZF2 (Homo sapiens, UniProt Q96SW2+Q9UKS7); assay: Western blot degradation of IKZF2; type: cell-based; settings: hPBMC Cell; 24 hours
T8 construct: expression of target proteins in cells; endogenous in cells
Procedure: as §1, §2, §3, §4, §5, §6, §7, §8

T1 sequence (P00533 25-1210): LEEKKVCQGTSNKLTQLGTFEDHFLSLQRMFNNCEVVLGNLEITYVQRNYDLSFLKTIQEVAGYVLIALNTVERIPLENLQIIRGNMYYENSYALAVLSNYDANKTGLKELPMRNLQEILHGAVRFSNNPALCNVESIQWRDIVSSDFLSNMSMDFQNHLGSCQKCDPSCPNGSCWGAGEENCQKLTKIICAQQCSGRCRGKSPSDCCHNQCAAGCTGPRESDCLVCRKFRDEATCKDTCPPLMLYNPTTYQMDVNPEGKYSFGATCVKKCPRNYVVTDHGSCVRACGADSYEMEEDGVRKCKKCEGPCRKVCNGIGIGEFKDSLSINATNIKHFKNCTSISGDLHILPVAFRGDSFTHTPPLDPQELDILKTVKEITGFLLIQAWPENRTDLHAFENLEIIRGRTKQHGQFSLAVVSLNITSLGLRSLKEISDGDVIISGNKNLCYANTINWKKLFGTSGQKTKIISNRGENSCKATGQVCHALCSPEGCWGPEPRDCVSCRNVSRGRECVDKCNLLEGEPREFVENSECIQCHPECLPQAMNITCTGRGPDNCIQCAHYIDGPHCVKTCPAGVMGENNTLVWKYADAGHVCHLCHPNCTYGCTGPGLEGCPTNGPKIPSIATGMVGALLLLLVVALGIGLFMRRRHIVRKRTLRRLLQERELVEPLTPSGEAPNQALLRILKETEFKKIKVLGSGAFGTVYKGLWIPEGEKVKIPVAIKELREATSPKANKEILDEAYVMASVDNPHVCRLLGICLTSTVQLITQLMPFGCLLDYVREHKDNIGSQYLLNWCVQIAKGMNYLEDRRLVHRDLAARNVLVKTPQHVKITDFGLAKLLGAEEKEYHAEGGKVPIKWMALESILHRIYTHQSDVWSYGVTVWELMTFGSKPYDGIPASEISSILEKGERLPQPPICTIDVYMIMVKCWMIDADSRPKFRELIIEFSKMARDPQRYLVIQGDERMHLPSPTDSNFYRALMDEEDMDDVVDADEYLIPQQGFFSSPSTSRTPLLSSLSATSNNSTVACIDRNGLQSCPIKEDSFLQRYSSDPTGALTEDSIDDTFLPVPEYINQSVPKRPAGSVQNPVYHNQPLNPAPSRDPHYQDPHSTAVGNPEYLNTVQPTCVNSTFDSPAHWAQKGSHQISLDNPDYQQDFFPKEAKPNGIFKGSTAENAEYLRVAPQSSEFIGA
T1 sequence (Q96SW2 whole entry partner): as the sequence (Q96SW2 whole entry) above

Row | Compound | Degradation of substrate protein EGFR (substrate protein remaining %) (EGFR) | Inhibition Rate at 0.5 μM (%) [1] | Inhibition Rate at 2 μM (%) [1] | IC50 [2] [nM] | Degradation of substrate protein IKZF3 (substrate protein remaining %) (IKZF3) | Degradation of substrate protein GSPT1 (substrate protein remaining %) (GSPT1) | Degradation of substrate protein WEE1 (substrate protein remaining %) (WEE1) | Degradation of substrate protein CK1α (substrate protein remaining %) (CK1α) | Degradation of substrate protein IKZF2 (substrate protein remaining %) (IKZF2) | Degradation of substrate protein IKZF1 (substrate protein remaining %) (IKZF1)
1 | O=C1CCN(N2Cc3cc(CN4C[C@@H]5C[C@H]4CN5c4ccc(-c5cc(F)c6c(c5)C(=O)N(C(C(=O)Nc5nccs5)c5ncn7c5CCC7)C6)cc4)ccc3C2=O)C(=O)N1 (stereo partly drawn) [GT-05114, 2-(6,7-dihydro-5H-pyrrolo[1,2-c]imidazol-1-yl)-2-(6-(4-((1S,4S)-5-((2-(2,4-dioxotetrahydropyrimidin-1(2H)-yl)-1-oxoisoindolin-5-yl)methyl)-2,5-diazabicyclo[2.2.1]heptan-2-yl)phenyl)-4-fluoro-1-oxoisoindolin-2-yl)-N-(thiazol-2-yl)acetamide] | A (0%≤substrate protein remaining %≤80%) | a2 (20% < a2 ≤ 30%) | a5 (53% < a5 ≤ 60%) | 100 to 130 | – | – | – | – | – | –
2 | O=C1CCN(N2C(=O)c3ccc(F)cc3C2=O)C(=O)N1 [GT-05575, 2-(2,4-dioxotetrahydropyrimidin-1(2H)-yl)-5-fluoroisoindoline-1,3-dione] | – | – | – | – | A (0%≤substrate protein remaining %≤80%) | A (0%≤substrate protein remaining %≤80%) | A (0%≤substrate protein remaining %≤80%) | A (0%≤substrate protein remaining %≤80%) | A (0%≤substrate protein remaining %≤80%) | B (80%<substrate protein remaining %≤100%)
3 | O=C1CCN(N2C(=O)c3cc(N4CCNCC4)cc(F)c3C2=O)C(=O)N1 [GT-05593, 2-(2,4-dioxotetrahydropyrimidin-1(2H)-yl)-4-fluoro-6-(piperazin-1-yl)isoindoline-1,3-dione] | – | – | – | – | B (80%<substrate protein remaining %≤100%) | A (0%≤substrate protein remaining %≤80%) | B (80%<substrate protein remaining %≤100%) | B (80%<substrate protein remaining %≤100%) | A (0%≤substrate protein remaining %≤80%) | B (80%<substrate protein remaining %≤100%)
4 | O=CC1CCN(c2ccc3c(c2)C(=O)N(N2CCC(=O)NC2=O)C3=O)CC1 [GT-05580, 1-(2-(2,4-dioxotetrahydropyrimidin-1(2H)-yl)-1,3-dioxoisoindolin-5-yl)piperidine-4-carbaldehyde] | – | – | – | – | A (0%≤substrate protein remaining %≤80%) | A (0%≤substrate protein remaining %≤80%) | A (0%≤substrate protein remaining %≤80%) | A (0%≤substrate protein remaining %≤80%) | A (0%≤substrate protein remaining %≤80%) | B (80%<substrate protein remaining %≤100%)
5 | O=C1CCN(N2Cc3cc(CN4CCN(c5ccc(-c6cc(F)c7c(c6)C(=O)N(C(C(=O)Nc6nccs6)c6ncn8c6CCC8)C7)cc5)CC4)ccc3C2=O)C(=O)N1 (centres unmarked) [GT-06159, 2-(6,7-dihydro-5H-pyrrolo[1,2-c]imidazol-1-yl)-2-(6-(4-(4-((2-(2,4-dioxotetrahydropyrimidin-1(2H)-yl)-1-oxoisoindolin-5-yl)methyl)piperazin-1-yl)phenyl)-4-fluoro-1-oxoisoindolin-2-yl)-N-(thiazol-2-yl)acetamide] | A (0%≤substrate protein remaining %≤80%) | – | – | < 10 | – | – | – | – | – | –

More lines, main results first:

Row | Degradation of substrate protein EGFR (substrate protein remaining %) (EGFR) | Inhibition Rate at 0.5 μM (%) [1] | Inhibition Rate at 2 μM (%) [1] | IC50 [2] [nM] | Degradation of substrate protein IKZF3 (substrate protein remaining %) (IKZF3) | Degradation of substrate protein GSPT1 (substrate protein remaining %) (GSPT1) | Degradation of substrate protein WEE1 (substrate protein remaining %) (WEE1) | Degradation of substrate protein CK1α (substrate protein remaining %) (CK1α) | Degradation of substrate protein IKZF2 (substrate protein remaining %) (IKZF2) | Compound | Degradation of substrate protein IKZF1 (substrate protein remaining %) (IKZF1)
6 | A (0%≤substrate protein remaining %≤80%) | a1 (10% < a1 ≤ 20%) | a5 (53% < a5 ≤ 60%) | 10 to 50 | – | – | – | – | – | O=C1CCN(N2Cc3cc(CN4CCN(C5CCN(c6ccc(-c7cc(F)c8c(c7)C(=O)N(C(C(=O)Nc7nccs7)c7ncn9c7CCC9)C8)cc6)CC5)CC4)ccc3C2=O)C(=O)N1 (centres unmarked) [GT-06241, 2-(6,7-dihydro-5H-pyrrolo[1,2-c]imidazol-1-yl)-2-(6-(4-(4-(4-((2-(2,4-dioxotetrahydropyrimidin-1(2H)-yl)-1-oxoisoindolin-5-yl)methyl)piperazin-1-yl)piperidin-1-yl)phenyl)-4-fluoro-1-oxoisoindolin-2-yl)-N-(thiazol-2-yl)acetamide] | –
7 | A (0%≤substrate protein remaining %≤80%) | – | – | < 10 | – | – | – | – | – | O=C1CCN(N2Cc3cc(CN4CCN(C5CCN(c6ccc(-c7cc(F)c8c(c7)C(=O)N(C(C(=O)Nc7nccs7)c7ncn9c7CCC9)C8)cc6)CC5(F)F)CC4)ccc3C2=O)C(=O)N1 (centres unmarked) [GT-06315, 2-(6,7-dihydro-5H-pyrrolo[1,2-c]imidazol-1-yl)-2-(6-(4-(4-(4-((2-(2,4-dioxotetrahydropyrimidin-1(2H)-yl)-1-oxoisoindolin-5-yl)methyl)piperazin-1-yl)-3,3-difluoropiperidin-1-yl)phenyl)-4-fluoro-1-oxoisoindolin-2-yl)-N-(thiazol-2-yl)acetamide] | –
8 | A (0%≤substrate protein remaining %≤80%) | – | – | 10 to 50 | – | – | – | – | – | O=C1CCN(N2C(=O)c3ccc(N4CCC(CN5CCN(c6ccc(-c7cc(F)c8c(c7)C(=O)N(C(C(=O)Nc7nccs7)c7ncn9c7CCC9)C8)cc6)CC5)CC4)cc3C2=O)C(=O)N1 (centres unmarked) [GT-06161, 2-(6,7-dihydro-5H-pyrrolo[1,2-c]imidazol-1-yl)-2-(6-(4-(4-((1-(2-(2,4-dioxotetrahydropyrimidin-1(2H)-yl)-1,3-dioxoisoindolin-5-yl)piperidin-4-yl)methyl)piperazin-1-yl)phenyl)-4-fluoro-1-oxoisoindolin-2-yl)-N-(thiazol-2-yl)acetamide] | –

Reference: US20260364184A1, “COMPOUND BASED ON OXOISOINDOLINYL-SUBSTITUTED TETRAHYDROPYRIMIDINE-DIONE AND USE THEREOF” (GLUETACS THERAPEUTICS (SHANGHAI) CO., LTD., priority 2023, published 2026)
